According to US12077503B2, “Substituted cyclic amides and their use as herbicides” (FMC CORPORATION, priority 2015, dated 2024):

Legend:
Format in all cases: in vivo
[1] = test system: barnyardgrass (Echinochloa crus-galli); assay: Test G Pre-Emergence Protocol; details: Echinochloa crus-galli, pre-emergence, 312 h, evaluated after 13 days
In short: (§1)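 Glasshouse pre-emergence test: soil-sown seeds, sprayed after 1 d at 15.625, 62.5 or 250 g/ha. Conditions 24/16° C day/night, 14 h light, 65% humidity, watering twice daily. Rating 13 d post-spray (100 = total damage).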

corn (Zea mays) [2] = assay: Test G Pre-Emergence Protocol; details: Zea mays, pre-emergence, 312 h, evaluated after 13 days
In short: as §1

[3] = test system: giant foxtail (Setaria faberi); assay: Test G Pre-Emergence Protocol; details: Setaria faberi, pre-emergence, 312 h, evaluated after 13 days
In short: as §1

[4] = test system: ivy-leaved morning glory (Ipomoea hederacea); assay: Test G Pre-Emergence Protocol; details: Ipomoea, pre-emergence, 312 h, evaluated after 13 days
In short: as §1

[5] = test system: redroot pigweed (Amaranthus retroflexus); assay: Test G Pre-Emergence Protocol; details: Amaranthus retroflexus, pre-emergence, 312 h, evaluated after 13 days
In short: as §1

[6] = test system: velvetleaf (Abutilon theophrasti); assay: Test G Pre-Emergence Protocol; details: Abutilon theophrasti, pre-emergence, 312 h, evaluated after 13 days
In short: as §1

[7] = test system: barnyardgrass (Echinochloa crus-galli); assay: Test G Post-Emergence Protocol; details: Echinochloa crus-galli, post-emergence, 312 h
In short: (§2)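 Scores run 0 (no damage) to 100 (total damage) and were taken 13 days after spraying. Plants had been raised in pots for 8 days under glasshouse control (24/16 °C, 14 h photoperiod, 65% humidity) and then treated at 15.625, 62.5 or 250 g/ha.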

corn (Zea mays) [8] = assay: Test G Post-Emergence Protocol; details: Zea mays, post-emergence, 312 h
In short: as §2

[9] = test system: giant foxtail (Setaria faberi); assay: Test G Post-Emergence Protocol; details: Setaria faberi, post-emergence, 312 h
In short: as §2

[10] = test system: ivy-leaved morning glory (Ipomoea hederacea); assay: Test G Post-Emergence Protocol; details: Ipomoea, post-emergence, 312 h
In short: as §2

[11] = test system: redroot pigweed (Amaranthus retroflexus); assay: Test G Post-Emergence Protocol; details: Amaranthus retroflexus, post-emergence, 312 h
In short: as §2

[12] = test system: velvetleaf (Abutilon theophrasti); assay: Test G Post-Emergence Protocol; details: Abutilon theophrasti, post-emergence, 312 h
In short: as §2

Cc1cc(C(F)(F)F)ccc1NC(=O)[C@H]1C(=O)N(C)C[C@@H]1c1ccc(C(F)(F)F)cc1 (racemic) [Compound 1411]
0%: pest or weed control at 15.625 g/ha ([1]; 15.625 g ai/ha, read-out: Barnyard grass damage rating (100=total damage to plant; 0=no damage to plant)) | pest or weed control at 62.5 g/ha ([1]; 62.5 g ai/ha, 100=total damage to plant, 0=no damage to plant, read-out: plant damage rating, Barnyardgrass) | pest or weed control at 250 g/ha ([1]; 250 g ai/ha, read-out: Barnyardgrass damage rating (100=total damage to plant; 0=no damage to plant)) | plant injury at 15.625 g/ha (corn (Zea mays) [2]; 15.625 g ai/ha, read-out: Corn damage rating (100=total damage to plant; 0=no damage to plant)) | plant injury at 62.5 g/ha (corn (Zea mays) [2]; 62.5 g ai/ha, 100=total damage to plant, 0=no damage to plant, read-out: plant damage rating, Corn) | plant injury at 250 g/ha (corn (Zea mays) [2]; 250 g ai/ha, read-out: Corn damage rating (100=total damage to plant; 0=no damage to plant)) | pest or weed control at 15.625 g/ha ([3]; 15.625 g ai/ha, read-out: Foxtail, Giant damage rating (100=total damage to plant; 0=no damage to plant)) | pest or weed control at 62.5 g/ha ([3]; 62.5 g ai/ha, 100=total damage to plant, 0=no damage to plant, read-out: plant damage rating, Foxtail, Giant) | pest or weed control at 250 g/ha ([3]; 250 g ai/ha, read-out: Foxtail, Giant damage rating (100=total damage to plant; 0=no damage to plant)) | pest or weed control at 15.625 g/ha ([4]; 15.625 g ai/ha, read-out: Morning-glory, Ivy-leaved damage rating (100=total damage to plant; 0=no damage to plant)) | pest or weed control at 62.5 g/ha ([4]; 62.5 g ai/ha, 100=total damage to plant, 0=no damage to plant, read-out: plant damage rating, Morningglory, Ivy-leaved) | pest or weed control at 250 g/ha ([4]; 250 g ai/ha, read-out: Morningglory, Ivy-leaved damage rating (100=total damage to plant; 0=no damage to plant)) | pest or weed control at 15.625 g/ha ([5]; 15.625 g ai/ha, read-out: Pigweed, Redroot damage rating (100=total damage to plant; 0=no damage to plant)) | pest or weed control at 62.5 g/ha ([5]; 62.5 g ai/ha, 100=total damage to plant, 0=no damage to plant, read-out: plant damage rating, Pigweed, Redroot) | pest or weed control at 250 g/ha ([5]; 250 g ai/ha, read-out: Pigweed, Redroot damage rating (100=total damage to plant; 0=no damage to plant)) | pest or weed control at 15.625 g/ha ([6]; 15.625 g ai/ha, read-out: Velvetleaf damage rating (100=total damage to plant; 0=no damage to plant)) | pest or weed control at 62.5 g/ha ([6]; 62.5 g ai/ha, 100=total damage to plant, 0=no damage to plant, read-out: plant damage rating, Velvetleaf) | pest or weed control at 250 g/ha ([6]; 250 g ai/ha, read-out: Velvetleaf damage rating (100=total damage to plant; 0=no damage to plant)) | pest or weed control at 15.625 g/ha ([7]; 15.625 g ai/ha, evaluated after 13 days (100=total damage to plant; 0=no damage to plant), read-out: Barnyardgrass damage rating) | pest or weed control at 62.5 g/ha ([7]; 62.5 g ai/ha, evaluated after 13 days, read-out: Barnyardgrass damage rating (100=total damage to plant; 0=no damage to plant)) | pest or weed control at 250 g/ha ([7]; 250 g ai/ha, evaluated after 13 days, read-out: damage to plant, Barnyardgrass (100=total damage to plant; 0=no damage to plant)) | plant injury at 15.625 g/ha (corn (Zea mays) [8]; 15.625 g ai/ha, evaluated after 13 days (100=total damage to plant; 0=no damage to plant), read-out: Corn damage rating) | plant injury at 62.5 g/ha (corn (Zea mays) [8]; 62.5 g ai/ha, evaluated after 13 days, read-out: Corn damage rating (100=total damage to plant; 0=no damage to plant)) | plant injury at 250 g/ha (corn (Zea mays) [8]; 250 g ai/ha, evaluated after 13 days, read-out: damage to plant, Corn (100=total damage to plant; 0=no damage to plant)) | pest or weed control at 15.625 g/ha ([9]; 15.625 g ai/ha, evaluated after 13 days (100=total damage to plant; 0=no damage to plant), read-out: Foxtail, Giant damage rating) | pest or weed control at 62.5 g/ha ([9]; 62.5 g ai/ha, evaluated after 13 days, read-out: Foxtail, Giant damage rating (100=total damage to plant; 0=no damage to plant)) | pest or weed control at 250 g/ha ([9]; 250 g ai/ha, evaluated after 13 days, read-out: damage to plant, Foxtail, Giant (100=total damage to plant; 0=no damage to plant)) | pest or weed control at 15.625 g/ha ([10]; 15.625 g ai/ha, evaluated after 13 days (100=total damage to plant; 0=no damage to plant), read-out: Morningglory, Ivy-leaved damage rating) | pest or weed control at 62.5 g/ha ([10]; 62.5 g ai/ha, evaluated after 13 days, read-out: Morningglory, Ivy-leaved damage rating (100=total damage to plant; 0=no damage to plant)) | pest or weed control at 250 g/ha ([10]; 250 g ai/ha, evaluated after 13 days, read-out: damage to plant, Morningglory, Ivy-leaved (100=total damage to plant; 0=no damage to plant)) | pest or weed control at 15.625 g/ha ([11]; 15.625 g ai/ha, evaluated after 13 days (100=total damage to plant; 0=no damage to plant), read-out: Pigweed, Redroot damage rating) | pest or weed control at 62.5 g/ha ([11]; 62.5 g ai/ha, evaluated after 13 days, read-out: Pigweed, Redroot damage rating (100=total damage to plant; 0=no damage to plant)) | pest or weed control at 250 g/ha ([11]; 250 g ai/ha, evaluated after 13 days, read-out: damage to plant, Pigweed, Redroot (100=total damage to plant; 0=no damage to plant)) | pest or weed control at 15.625 g/ha ([12]; 15.625 g ai/ha, evaluated after 13 days (100=total damage to plant; 0=no damage to plant), read-out: Velvetleaf damage rating) | pest or weed control at 62.5 g/ha ([12]; 62.5 g ai/ha, evaluated after 13 days, read-out: Velvetleaf damage rating (100=total damage to plant; 0=no damage to plant)) | pest or weed control at 250 g/ha ([12]; 250 g ai/ha, evaluated after 13 days, read-out: damage to plant, Velvetleaf (100=total damage to plant; 0=no damage to plant))
